Reference: ChEMBL document CHEMBL3286334, “Identification of tetrapeptides from a mixture based positional scanning library that can restore nM full agonist function of the L106P, I69T, I102S, A219V, C271Y, and C271R human melanocortin-4 polymorphic receptors (hMC4Rs)” (J Med Chem, 2014)
Where a SMILES comes first, the peptide text is derived from it. [ ]: non-standard residue; d: D form. Phe(4-I) = N[C@@H](Cc1ccc(I)cc1)C(=O)O; dPhe(4-I) = N[C@H](Cc1ccc(I)cc1)C(=O)O; Tic = O=C(O)[C@@H]1Cc2ccccc2CN1; dTic = O=C(O)[C@H]1Cc2ccccc2CN1

molecular target: Melanocortin receptor 4 (Homo sapiens, UniProt P32245); experiment: Agonist activity at wild type human melanocortin-4 receptor expressed in HEK293 cells co-transfected with CRE/beta-galactosidase reporter gene assessed as stimulatory response after 6 hrs; assay type: functional, cell-based; settings: not given

| Compound | EC50 [µM] |
| --- | --- |
| CC(=O)N[C@@H](CCCNC(=N)N)C(=O)N[C@H](Cc1ccc(Cl)cc1)C(=O)N1Cc2ccccc2C[C@H]1C(=O)N1Cc2ccccc2C[C@H]1C(N)=O | 0.25 |
| CC(=O)N1Cc2ccccc2CC1C(=O)N[C@H](Cc1ccc(Cl)cc1)C(=O)N[C@@H](CCCNC(=N)N)C(=O)N[C@@H](Cc1ccc(I)cc1)C(N)=O (stereo partly drawn) | 0.0026 |
| CC(=O)N1Cc2ccccc2C[C@H]1C(=O)N[C@H](Cc1ccc(I)cc1)C(=O)N1Cc2ccccc2C[C@H]1C(=O)N[C@H](Cc1ccc([N+](=O)[O-])cc1)C(N)=O | 0.0051 |
| CC(=O)N[C@@H](CCCNC(=N)N)C(=O)N[C@H](Cc1ccc(I)cc1)C(=O)N1Cc2ccccc2C[C@H]1C(=O)N[C@H](Cc1ccc([N+](=O)[O-])cc1)C(N)=O | 0.00026 |
| CC(=O)N[C@@H](CCCNC(=N)N)C(=O)N[C@H](Cc1ccc(I)cc1)C(=O)N1Cc2ccccc2CC1C(=O)N[C@@H](Cc1ccc(I)cc1)C(N)=O (stereo partly drawn) | 0.203 |
| CC(=O)N1Cc2ccccc2C[C@H]1C(=O)N[C@H](Cc1ccc(Cl)cc1)C(=O)N1Cc2ccccc2C[C@H]1C(=O)N[C@H](Cc1ccc([N+](=O)[O-])cc1)C(N)=O | 0.0096 |
| CC(=O)N[C@@H](CCCNC(=N)N)C(=O)N[C@H](Cc1ccc(I)cc1)C(=O)N1Cc2ccccc2C[C@H]1C(=O)N1Cc2ccccc2C[C@H]1C(N)=O | 2.26 |
| CC(=O)N[C@@H](Cc1c[nH]cn1)C(=O)N[C@H](Cc1ccc(I)cc1)C(=O)N1Cc2ccccc2C[C@H]1C(=O)N1Cc2ccccc2C[C@H]1C(N)=O | 0.024 |
| CC(=O)N1Cc2ccccc2C[C@@H]1C(=O)N[C@H](Cc1ccccc1)C(=O)N[C@@H](CCCN=C(N)N)C(=O)N[C@@H](Cc1c[nH]c2ccccc12)C(N)=O (Ac-[dTic][dF]RW-NH2) | 0.297 |
| CC(=O)N[C@@H](CCCNC(=N)N)C(=O)N[C@H](Cc1ccc(Cl)cc1)C(=O)N1Cc2ccccc2CC1C(=O)N[C@@H](Cc1ccc(I)cc1)C(N)=O (stereo partly drawn) | 0.022 |

same assay, conditions: hek293

| Compound | EC50 [µM] |
| --- | --- |
| CC(=O)N1Cc2ccccc2C[C@H]1C(=O)N[C@H](Cc1ccccc1)C(=O)N[C@@H](CCCNC(=N)N)C(=O)N[C@@H](Cc1c[nH]c2ccccc12)C(N)=O (Ac-[Tic][dF]RW-NH2) | 0.015 |
| CC(=O)N[C@@H](Cc1c[nH]cn1)C(=O)N[C@H](Cc1ccccc1)C(=O)N1Cc2ccccc2C[C@H]1C(=O)N[C@@H](Cc1c[nH]c2ccccc12)C(N)=O | 0.204 |

molecular target: Melanocortin receptor 4 (Homo sapiens, UniProt P32245, L106P); experiment: Agonist activity at human melanocortin-4 receptor L106P mutant expressed in HEK293 cells co-transfected with CRE/beta-galactosidase reporter gene assessed as stimulatory response after 6 hrs; assay type: functional, cell-based; settings: not given

| Compound | EC50 [µM] |
| --- | --- |
| CC(=O)N[C@@H](CCCNC(=N)N)C(=O)N[C@H](Cc1ccc(Cl)cc1)C(=O)N[C@@H](CCCNC(=N)N)C(=O)N[C@@H](Cc1ccc(I)cc1)C(N)=O | 0.013 |
| CC(=O)N[C@@H](CCCNC(=N)N)C(=O)N[C@H](Cc1ccc(Cl)cc1)C(=O)N1Cc2ccccc2C[C@H]1C(=O)N1Cc2ccccc2C[C@H]1C(N)=O | 2.45 |
| CC(=O)N1Cc2ccccc2CC1C(=O)N[C@H](Cc1ccc(Cl)cc1)C(=O)N[C@@H](CCCNC(=N)N)C(=O)N[C@@H](Cc1ccc(I)cc1)C(N)=O (stereo partly drawn) | 0.38 |
| CC(=O)N1Cc2ccccc2C[C@H]1C(=O)N[C@H](Cc1ccc(I)cc1)C(=O)N1Cc2ccccc2C[C@H]1C(=O)N[C@H](Cc1ccc([N+](=O)[O-])cc1)C(N)=O | 0.28 |
| CC(=O)N[C@@H](CCCNC(=N)N)C(=O)N[C@H](Cc1ccc(I)cc1)C(=O)N1Cc2ccccc2C[C@H]1C(=O)N[C@H](Cc1ccc([N+](=O)[O-])cc1)C(N)=O | 0.0026 |
| CC(=O)N[C@@H](CCCNC(=N)N)C(=O)N[C@H](Cc1ccc(I)cc1)C(=O)N[C@@H](CCCNC(=N)N)C(=O)N[C@@H](Cc1ccc(I)cc1)C(N)=O | 0.0044 |
| CC(=O)N[C@@H](CCCNC(=N)N)C(=O)N[C@H](Cc1ccc(I)cc1)C(=O)N1Cc2ccccc2CC1C(=O)N[C@@H](Cc1ccc(I)cc1)C(N)=O (stereo partly drawn) | 2.23 |
| CC(=O)N1Cc2ccccc2C[C@H]1C(=O)N[C@H](Cc1ccc(Cl)cc1)C(=O)N1Cc2ccccc2C[C@H]1C(=O)N[C@H](Cc1ccc([N+](=O)[O-])cc1)C(N)=O | 0.31 |
| CC(=O)N[C@@H](CCCNC(=N)N)C(=O)N[C@H](Cc1ccc(I)cc1)C(=O)N1Cc2ccccc2C[C@H]1C(=O)N1Cc2ccccc2C[C@H]1C(N)=O | 27.5 |
| CC(=O)N[C@@H](Cc1c[nH]cn1)C(=O)N[C@H](Cc1ccc(I)cc1)C(=O)N1Cc2ccccc2C[C@H]1C(=O)N1Cc2ccccc2C[C@H]1C(N)=O | 3.76 |
| CC(=O)N1Cc2ccccc2C[C@@H]1C(=O)N[C@H](Cc1ccccc1)C(=O)N[C@@H](CCCN=C(N)N)C(=O)N[C@@H](Cc1c[nH]c2ccccc12)C(N)=O (Ac-[dTic][dF]RW-NH2) | 17.9 |
| CC(=O)N[C@@H](CCCNC(=N)N)C(=O)N[C@H](Cc1ccc(Cl)cc1)C(=O)N1Cc2ccccc2CC1C(=O)N[C@@H](Cc1ccc(I)cc1)C(N)=O (stereo partly drawn) | 0.215 |

same assay, conditions: hek293

| Compound | EC50 [µM] |
| --- | --- |
| CC(=O)N1Cc2ccccc2C[C@H]1C(=O)N[C@H](Cc1ccccc1)C(=O)N[C@@H](CCCNC(=N)N)C(=O)N[C@@H](Cc1c[nH]c2ccccc12)C(N)=O (Ac-[Tic][dF]RW-NH2) | 4.94 |
| CC(=O)N[C@@H](Cc1c[nH]cn1)C(=O)N[C@H](Cc1ccccc1)C(=O)N1Cc2ccccc2C[C@H]1C(=O)N[C@@H](Cc1c[nH]c2ccccc12)C(N)=O | 18.8 |

molecular target: Melanocortin receptor 4 (Homo sapiens, UniProt P32245, I69T); experiment: Agonist activity at human melanocortin-4 receptor I69T mutant expressed in HEK293 cells co-transfected with CRE/beta-galactosidase reporter gene assessed as stimulatory response after 6 hrs; assay type: functional, cell-based; settings: not given

| Compound | EC50 [µM] |
| --- | --- |
| CC(=O)N[C@@H](CCCNC(=N)N)C(=O)N[C@H](Cc1ccc(I)cc1)C(=O)N1Cc2ccccc2C[C@H]1C(=O)N[C@H](Cc1ccc([N+](=O)[O-])cc1)C(N)=O | 0.0041 |

molecular target: Melanocortin receptor 4 (Homo sapiens, UniProt P32245, I102S); experiment: Agonist activity at human melanocortin-4 receptor I102S mutant expressed in HEK293 cells co-transfected with CRE/beta-galactosidase reporter gene assessed as stimulatory response after 6 hrs; assay type: functional, cell-based; settings: not given

| Compound | EC50 [µM] |
| --- | --- |
| CC(=O)N[C@@H](CCCNC(=N)N)C(=O)N[C@H](Cc1ccc(I)cc1)C(=O)N1Cc2ccccc2C[C@H]1C(=O)N[C@H](Cc1ccc([N+](=O)[O-])cc1)C(N)=O | 0.0029 |
| CC(=O)N[C@@H](CCCNC(=N)N)C(=O)N[C@H](Cc1ccc(I)cc1)C(=O)N[C@@H](CCCNC(=N)N)C(=O)N[C@@H](Cc1ccc(I)cc1)C(N)=O | 0.0035 |

molecular target: Melanocortin receptor 4 (Homo sapiens, UniProt P32245, A219V); experiment: Agonist activity at human melanocortin-4 receptor A219V mutant expressed in HEK293 cells co-transfected with CRE/beta-galactosidase reporter gene assessed as stimulatory response after 6 hrs; assay type: functional, cell-based; settings: not given

| Compound | EC50 [µM] |
| --- | --- |
| CC(=O)N[C@@H](CCCNC(=N)N)C(=O)N[C@H](Cc1ccc(I)cc1)C(=O)N1Cc2ccccc2C[C@H]1C(=O)N[C@H](Cc1ccc([N+](=O)[O-])cc1)C(N)=O | 0.0061 |

molecular target: Melanocortin receptor 4 (Homo sapiens, UniProt P32245, C271Y); experiment: Agonist activity at human melanocortin-4 receptor C271Y mutant expressed in HEK293 cells co-transfected with CRE/beta-galactosidase reporter gene assessed as stimulatory response after 6 hrs; assay type: functional, cell-based; settings: not given

| Compound | EC50 [µM] |
| --- | --- |
| CC(=O)N[C@@H](Cc1cnc[nH]1)C(=O)N[C@H](Cc1ccc(I)cc1)C(=O)N[C@@H](CCCNC(=N)N)C(=O)N[C@@H](Cc1ccc(I)cc1)C(N)=O (Ac-H[dPhe(4-I)]R[Phe(4-I)]-NH2) | > 100 |
| CC(=O)N[C@@H](CCCNC(=N)N)C(=O)N[C@H](Cc1ccc(Cl)cc1)C(=O)N[C@@H](CCCNC(=N)N)C(=O)N[C@@H](Cc1ccc(I)cc1)C(N)=O | > 100 |
| CC(=O)N[C@@H](CCCNC(=N)N)C(=O)N[C@H](Cc1ccc(I)cc1)C(=O)N1Cc2ccccc2C[C@H]1C(=O)N[C@H](Cc1ccc([N+](=O)[O-])cc1)C(N)=O | 19.7 |
| CC(=O)N[C@@H](CCCNC(=N)N)C(=O)N[C@H](Cc1ccc(I)cc1)C(=O)N[C@@H](CCCNC(=N)N)C(=O)N[C@@H](Cc1ccc(I)cc1)C(N)=O | > 100 |

molecular target: Melanocyte-stimulating hormone receptor (Mus musculus, UniProt Q01727); experiment: Agonist activity at mouse melanocortin-1 receptor expressed in HEK293 cells co-transfected with CRE/beta-galactosidase reporter gene assessed as stimulatory response after 6 hrs; assay type: functional, cell-based; settings: not given

| Compound | EC50 [µM] |
| --- | --- |
| CC(=O)N[C@@H](Cc1cnc[nH]1)C(=O)N[C@H](Cc1ccc(Cl)cc1)C(=O)N[C@@H](CCCNC(=N)N)C(=O)N[C@@H](Cc1ccc(I)cc1)C(N)=O | 0.019 |
| CC(=O)N[C@@H](Cc1cnc[nH]1)C(=O)N[C@H](Cc1ccc(I)cc1)C(=O)N[C@@H](CCCNC(=N)N)C(=O)N[C@@H](Cc1ccc(I)cc1)C(N)=O (Ac-H[dPhe(4-I)]R[Phe(4-I)]-NH2) | 0.012 |
| CC(=O)N[C@@H](CCCNC(=N)N)C(=O)N[C@H](Cc1ccc(I)cc1)C(=O)N1Cc2ccccc2C[C@H]1C(=O)N[C@H](Cc1ccc([N+](=O)[O-])cc1)C(N)=O | 0.0027 |

molecular target: Melanocortin receptor 3 (Mus musculus, UniProt P33033); experiment: Agonist activity at mouse melanocortin-3 receptor expressed in HEK293 cells co-transfected with CRE/beta-galactosidase reporter gene assessed as stimulatory response after 6 hrs; assay type: functional, cell-based; settings: not given

| Compound | EC50 [µM] |
| --- | --- |
| CC(=O)N[C@@H](CCCNC(=N)N)C(=O)N[C@H](Cc1ccc(Cl)cc1)C(=O)N1Cc2ccccc2CC1C(=O)N[C@H](Cc1ccc([N+](=O)[O-])cc1)C(N)=O (stereo partly drawn) | 0.094 |
| CC(=O)N[C@@H](Cc1cnc[nH]1)C(=O)N[C@H](Cc1ccc(Cl)cc1)C(=O)N1Cc2ccccc2CC1C(=O)N[C@H](Cc1ccc([N+](=O)[O-])cc1)C(N)=O (stereo partly drawn) | 0.055 |
| CC(=O)N[C@@H](CCCNC(=N)N)C(=O)N[C@H](Cc1ccc(I)cc1)C(=O)N1Cc2ccccc2CC1C(=O)N[C@H](Cc1ccc([N+](=O)[O-])cc1)C(N)=O (stereo partly drawn) | 0.047 |
| CC(=O)N[C@@H](Cc1cnc[nH]1)C(=O)N[C@H](Cc1ccc(I)cc1)C(=O)N1Cc2ccccc2CC1C(=O)N[C@H](Cc1ccc([N+](=O)[O-])cc1)C(N)=O (stereo partly drawn) | 0.035 |

molecular target: Melanocortin receptor 4 (Mus musculus, UniProt P56450); experiment: Agonist activity at mouse melanocortin-4 receptor expressed in HEK293 cells co-transfected with CRE/beta-galactosidase reporter gene assessed as stimulatory response after 6 hrs; assay type: functional, cell-based; settings: not given

| Compound | EC50 [µM] |
| --- | --- |
| CC(=O)N[C@@H](CCCNC(=N)N)C(=O)N[C@H](Cc1ccc(I)cc1)C(=O)N1Cc2ccccc2C[C@H]1C(=O)N[C@H](Cc1ccc([N+](=O)[O-])cc1)C(N)=O | 0.0027 |

molecular target: Melanocortin receptor 5 (Mus musculus, UniProt P41149); experiment: Agonist activity at mouse melanocortin-5 receptor expressed in HEK293 cells co-transfected with CRE/beta-galactosidase reporter gene assessed as stimulatory response after 6 hrs; assay type: functional, cell-based; settings: not given

| Compound | EC50 [µM] |
| --- | --- |
| CC(=O)N[C@@H](CCCNC(=N)N)C(=O)N[C@H](Cc1ccc(I)cc1)C(=O)N1Cc2ccccc2C[C@H]1C(=O)N[C@H](Cc1ccc([N+](=O)[O-])cc1)C(N)=O | 0.0011 |
